This is an account of results in patent publication US10968224B2, “2,11-diaza-[3.3](2,6)pyridinophane compounds and their application as ligands of essential metal ion based MRI contrast agents and 52MN based PET contrast agents” (DEBRECENI EGYETEM, priority 2015, dated 2021).

Series [1] can be described thus: Equilibrium study: stability constants of the Mn(II) complexes and calculated pMn. The class given is physicochemical. As to conditions: 25° C., 0.15M NaCl; for pMn: calculated from equilibrium constants at pH = 7.4 and cMn = cL = 10^−5 M. The method, then:
(§1) During the physico-chemical studies of BP2AM^Pyp and BP2AM^Pro compounds prepared according to Example 1 and 2, their protonation constants, as well as equilibrium behaviour and kinetic inertness of their Mn(II) complexes was studied in detail, and the characteristic relaxivity values of the complexes were determined in the presence and absence of HSA (Human Serum Albumin), at 25 and 37° C. and physiological pH. All studies were performed in the presence of 0.15 M NaCl, the same concentration as that of the electrolyte under physiological conditions.
(§2) The results of equilibrium study are summarized in Table 1, in addition to the protonation constants, total basicity of ligands and stability constants of their Mn(II) complexes, the pMn value calculated for complexes are also represented in the table.
Based on the pMn values presented in Table 1 (calculated using the equilibrium constants at pH=7.4 and cMn=cL=10^−5 M), it can be concluded that the studied Mn(II) complexes are formed in 100% at physiological pH, which is an essential aspect of the practical use.

Series [2] can be described thus: Equilibrium study: protonation constants of the ligands. The class given is physicochemical. As to conditions: 25° C., 0.15M NaCl. The method, then: as §1, §2
For series [3] the following is noted: literature values, stated as under the same conditions; cited from earlier work.
For series [4] the following is noted: cited from earlier work.

As to `O=C(O)C1CCCN1C(=O)CN1Cc2cccc(n2)CN(CC(=O)N2CCCC2C(=O)O)Cc2cccc(n2)C1` (stereo not shown) [BP2AM^Pro], in series [1], the “logKMnL (stability constant of Mn(II) complex)” value is reported as 11.47(5) and the pMn is 7.51. In series [2], the “logK1 (protonation constant)” value is 8.83(1), the “logK2 (protonation constant)” value is reported as 3.89(2), the “logK3 (protonation constant)” value is 3.05(2) and the “logK4 (protonation constant)” value is on record as 2.39(2). Moreover, in series [2], the “ΣlogKi^H (total basicity)” value amounted to 18.16.

In the case of `O=C(CN1Cc2cccc(n2)CN(CC(=O)N2CCCCC2)Cc2cccc(n2)C1)N1CCCCC1` [BP2AM^Pyp, 2,11-bis[2-oxo-2-(piperidine-1-il)-ethyl]-2,11-diaza[3.3](2,6)-pyridinophane], in series [1], the “logKMnL (stability constant of Mn(II) complex)” value is reported as 13.58(1) and the pMn was 8.19. In series [2], the “logK1 (protonation constant)” value was 9.57(2), the “logK2 (protonation constant)” value was 2.99(2) and the “ΣlogKi^H (total basicity)” value amounted to 12.56.

Turning to `CNC[C@H](O)[C@@H](O)[C@H](O)[C@H](O)CO.O=C([O-])CN1CCN(CC(=O)[O-])CCN(CC(=O)O)CCN(CC(=O)[O-])CC1.[Gd+3]` [DOTAREM], the r1 relaxivity in series [3] is 3.83 mM⁻¹ s⁻¹.

Turning to `CNC[C@H](O)[C@@H](O)[C@H](O)[C@H](O)CO.CNC[C@H](O)[C@@H](O)[C@H](O)[C@H](O)CO.O=C([O-])CN(CCN(CC(=O)[O-])CC(=O)O)CCN(CC(=O)[O-])CC(=O)O.[Gd+3]` [MAGNEVIST], the “Gd(III) ion released, calculated on the basis of experiments” value in series [4] (25° C.) is reported as 0.5%. Further, the “Gd(III) ion released during in vivo dissociation” value in series [4] (37° C.) is reported as 2.2%. Besides, in series [3], the r1 relaxivity was 4.02 mM⁻¹ s⁻¹.
